We go through 20 compounds from patent US20060257875A1, “Affinity screening using "one-bead-one-compound" libraries” (Carlsberg A/S, priority 2003, published 2006).

Non-standard residues stand in square brackets, D forms with d. No end group written: not given here. T(Sa) = sialic acid threonine lactam (threonine bearing sialic acid, its amine closed onto the sugar)

For experiment [1], the system named is normal porcine macrophage proteins. Put plainly: Solid phase screening of small molecule Library 7 with labeled viral and porcine macrophage proteins. In kind it is binding. The settings on record: Normal Macrophages. An excerpt:
(§1) Alternatively, the fluorescent ligand library beads containing bound protein obtained as described in Examples 47, 48, 49 and 51 were sorted using a COPAS (250) NF Bead Sorter (Union Biometrica, Somerville, Mass.) equipped with a dual detector. Both the cyanine dyes used in the labeling procedure, namely Cy 2 (emission wavelength—510 nm) and Cy 3 (emission wavelength—570 nm) were simultaneously excited at […] The bead selection window was then set-up such that all beads containing significant green fluorescence and no red flourescence were isolated. The unselected beads were then resorted to obtain beads containing red fluorescence (proteins from basal cells). The selected red and green fluorescent beads were then sorted into brightly and less brightly fluorescent beads, to give an indication of either the strength of binding of the ligand to a particular protein or the amount of protein present in the sample binding to the ligand.
(§2) Ligands can be completely or partially identified by MALDI_TOF-MS whether or not the library is synthesized by ladder synthesis. […] The ligand is cleaved from the resin bead depending on the type of linker used. […] Peptide fragments (ladder synthesis) or single compounds were extracted from the bead with 0.5 AL CH3CN, then 0.5 FL 70% CH3CN/H2O. […] In the case of the acid labile Rink linker (Library 7), the compound was released from the bead by treatment with 95% TFA or 30 min. The TFA solution was evaporated and the cleaved compounds were extracted in 2 μL 70% acetonitrile+0.1% TFA. This mixture was then transferred to a stainless steel disc to which 0.4 μL of CHC matrix+1.0% TFA was added. An additional 0.4 μL of CHC matrix+1.0% TFA was added to complete sample application.
(§3) A typical analysis employed 100-300 laser shots. […] A typical analysis employed 200-300 laser shots. The possible identity of the ligand was determined (Narrowed down) by comparing the recorded mass of the ligand with the masses of all possible compounds formed in the library. This comparison was carried out using an in-house created computer program The precise identity of the ligand can then be confirmed using MS fragmentation as described in Example 41.
(§4) Isolated proteins that bound to specific ligands were identified using peptide mass fingerprinting. Mass spectra were recorded on a Bruker Reflex m MALDI time-of-flight mass spectrometer (Bruker-Daltonics, Bremen, Germany) operated in the positive reflectron mode using delayed extraction. Measurements were performed using the following parameters: Power 83-84 V; lens 7.300. The sum of 200-300 shots was used for each spectrum.
(§5) The spectra were calibrated using bradykinin peptide. In some cases, internal mass calibration was performed using a porcine trypsin autolysis product Peptide masses were searched against peptide mass maps in the National Center for Biotechnology Information (NCBI) database using the following search engines found on the world wide web (www.) for each of: • MS-FIT (prospector.ucsf.edu/ucsfhtml/msfit.htm), • Profound (129.85.19.192/profound_biniWebProFound.exe), and • MASCOT (matrixscience.com).
(§6) A search was performed using the NCBI bacterial (E. coli) database and the mammalian databases for the isolated proteins from the E. coli and myocyte samples, respectively, and the Swiss Prot mammalian databases and the Swiss Prot viral databases were searched to identify the porcine macrophage proteins and proteins, respectively. A molecular mass range was estimated from 0-250 K Da, allowing a mass accuracy that varied from 0.1 Da (some cases 0.3 Da) for each peptide mass. A large pI range from 0-14 or 0-12 was considered for each search. If no proteins matched, the mass window was extended. Partial enzyme cleavages allowing for two missed cleavage sites and modification of cysteine by alkylation were considered in the search approaches. A protein was considered identified if the matched peptides covered at least 30% of the complete sequence. […]

Experiment [2] deals with porcine reproductive and respiratory virus infected macrophage proteins. Described as above. In kind it is binding. Conditions: Virus-infected Macrophages, (V) indicates virus proteins.
Description: as §1, §2, §3, §4, §5, §6

Experiment [3] deals with normal/healthy myocyte proteins. Put plainly: Solid phase screening of small molecule biaryl Library 7 with labeled myocyte proteins. In kind it is binding, neonatal Wistar rats. Conditions: Normal Myocytes. As to the method: Myocytes were prepared from 1 to 5 day old neonatal Wistar rats (University of Copenhagen) according to literature procedure described in Busk et al., 2002, Cardiovasc. Res., 56: 64-75 and plated into eight P10 culture plates at 6 million cells/plate.
In another case, fluorescent dye Cyanine 3 (Cy 3) (Molecular Probes) was used to label the healthy/basal cells while Cyanine 2 (Cy 2) (Molecular Probes) was used to label the PE-treated cells. The labeling procedures were carried out according to the manufacturer's protocol. The protein solutions (0.35 mL, 100 μg for PE cells and 0.41 mL, 100 μg for basal cells) were dialyzed against a solution of 10 mM phosphate buffer, 0.15 M NaCl, pH 7.5 and then 1 M NaHCO3 (0.03-0.04 mL) was added to obtain a final pH between 8.0-9.0. For efficient labeling, […] fluor (5 μL solution was prepared by addition of […] of reconstituted fluorophore solution [1 nmol μL] and 3 μL of dry DMF) was used to label 50 μg of protein. The fluorophore and the protein solution are mixed thoroughly by vortexing. The samples are then centrifuged briefly in a microfuge and left on ice for 30 min in the dark. To stop the reaction, 10 mM lysine (1 μL) was added to the samples and the samples were mixed by vortexing and centrifuged briefly in a microfuge. The samples were left on ice for 10 min in the dark. The labeled protein solutions were dialyzed extensively against 10 mM phosphate buffer, 0.15 M NaCl, pH 7.5, to remove excess dye. Labeled samples were stored for at −70° C. in the dark until further use.
as §1, §2
A typical analysis employed 100-300 laser shots. […] The possible identity of the ligand was determined (Narrowed down) by comparing the recorded mass of the ligand with the masses of all possible compounds formed in the library. […]

The test system of experiment [4] is E. coli membrane proteins. Put plainly: Solid phase screening of Library 2 with labeled E. coli membrane proteins; bound proteins identified by tryptic digest and peptide mass fingerprinting. In kind it is binding, Escherichia coli DH 5α-136. The settings on record: Library 2 ligand on bead. As to the method:
A 400 mL culture of Escherichia coli DH 5α-136 (Carlsberg Research Center Collection) was prepared according to the procedures described in Hanahan, 1985, In: DNA Cloning, Vol 1, Glover, D., ed., IRL Press Ltd, pp. 109-135. […]. The media containing extracellular protein was retained and the pellet washed once with PBS, pH 7.6 (cellular weight=2.22g).
Isolation of E. coli membrane proteins was achieved through modification of published literature procedures: Auer, et al., 2001, Biochemistry, 40:6628-6635, and Molloy, et al., 2000, Eur. J. Biochem. 267:2871-2881. After incubation of E. coli cells for 2 days, washed cells were scraped from plates and centrifuged as described above for Example 10. The cell pellet (approximately 1 g) was suspended in 50 mM Tris HCl, pH 7.5 and pressed (2×) in a French Press at 1500 Psi. The resulting suspension was centrifuged at 2500×g for 10 minutes. The ice cold supernatant was diluted with 2.5 ml of ice-cold 0.1 M sodium carbonate buffer 11 and the solution stirred on ice for 1 hour. Ultracentrifugation was then carried out at 115, 000×g for 1 to 1.5 hours at 4° C., yielding Pellet 1 and Supernatant 1. The membrane pellet 1 was resuspended in 50 mM Tris HCl, pH 7.5 and the pellet was recollected after centrifugation for an additional 20 minutes at 115,000×g, yielding Pellet 2 and supernatant 2. Pellet 2 was solubilized in 50 mM Tris HCl, pH 7.5 containing 10 MM imidazole, 0.5 mM PMSF, 20% glycerol, and 1% Dodecyl Maltoside (DM) or 33 mM Octyl Glucoside (OG) for 30 mninutes at 4° C. The suspension was then centrifuged for 10,000 g for 30 minutes. The pellet and supernatant obtained were labeled Pellet 3 and supernatant 3.
The protein was labeled with amino reactive succinylanthranilate dye (blue) DDM (0.49 mg dye) and OG (0.03 mg dye) according to the same protocol used in the extracellular labeling described above for Example 12. The labeling stopping reaction (hydroxylamine hydrochloride addition) was not used in this case, to avoid dilution of the protein. The mixture was dialyzed overnight against 10 mM PBS buffer, pH 6.8 containing 0.01 MM ZnCl2, 0.01 mM CaCl2, 0.01 mM MnCl2, and 0.01 mM MnSO4, against a three time buffer change.
The ligand library was then washed, and E. coli labeled membrane protein, prepared as described above for Example 13, was added (0.1 ml). The ligand library and protein mixture was incubated overnight at room temperature.
as §2
A typical analysis employed 100-300 laser shots. […] A typical analysis employed 200-300 laser shots. The possible identity of the ligand was determined (Narrowed down) by comparing the recorded mass of the ligand with the masses of all possible compounds formed in the library. […]

`Cc1ccc(-c2csc(C(=O)NCC(=O)O)c2)cc1`: the “Identified Protein(s)” value in experiment [1] is reported as “Salt inducible kinase 2 (27529963); PVHL-ubiqquitin interacting enzyme 2 (23208620); Similar to glyceral- dehyde-3-phosphate dehydrogenase (gi27686413)”.
As to `O=C(O)[C@@H]1CCCN1C(=O)c1ccc(-c2ccco2)o1`, the “Identified Protein(s)” value in experiment [1] is “Salt inducible kinase 2 (27529963); PVHL-ubiqquitin interacting enzyme 2 (23208620); Similar to glyceral- dehyde-3-phosphate dehydrogenase (gi27686413)”.
Take `COc1ccccc1-c1ccc(C(=O)NCC(=O)O)o1`: the “Identified Protein(s)” value in experiment [1] is “Salt inducible kinase 2 (27529963); PVHL-ubiqquitin interacting enzyme 2 (23208620); Similar to glyceral- dehyde-3-phosphate dehydrogenase (gi27686413)”.
For the compound `COc1ccc(-c2ccc(C(=O)NCC(=O)O)o2)cc1`, the “Identified Protein(s)” value in experiment [1] was “Salt inducible kinase 2 (27529963); PVHL-ubiqquitin interacting enzyme 2 (23208620); Similar to glyceral- dehyde-3-phosphate dehydrogenase (gi27686413)”.
The same measure, in the same setting: for `NC[C@H](NC(=O)c1cccc(-c2ccco2)n1)C(=O)O` the value was “Salt inducible kinase 2 (27529963); PVHL-ubiqquitin interacting enzyme 2 (23208620); Similar to glyceral- dehyde-3-phosphate dehydrogenase (gi27686413)”.
As to `COc1ccc(-c2ccc(C(=O)O)cc2)c(OC)c1C(=O)N[C@@H](Cc1c[nH]cn1)C(=O)O`, in experiment [2], the “Identified Protein(s)” value is “Carbohydrate (chondroitin synthase 2) (28466981); Glucosidase II alpha-subunit (gi5452936); Similar to chromosome 9 reading frame 24 (gi29437020) (V) Envelope glycoprotein C2V3 region (gi3925092); Envelope glycoprotein (gi15705767)”.
With `COc1ccc(OC)c(-c2ccc(OC)c(C(=O)N[C@@H](Cc3c[nH]cn3)C(=O)O)c2OC)c1`, the “Identified Protein(s)” value in experiment [2] is on record as “Carbohydrate (chondroitin synthase 2) (28466981); Glucosidase II alpha-subunit (gi5452936); Similar to chromosome 9 reading frame 24 (gi29437020) (V) Envelope glycoprotein C2V3 region (gi3925092); Envelope glycoprotein (gi15705767)”.
For `COc1ccc(OC)c(-c2ccc(C(=O)N[C@@H](Cc3ccc(OC)c(OC)c3)C(=O)O)o2)c1`, the “Identified Protein(s)” value in experiment [2] is reported as “Carbohydrate (chondroitin synthase 2) (28466981); Glucosidase II alpha-subunit (gi5452936); Similar to chromosome 9 reading frame 24 (gi29437020) (V) Envelope glycoprotein C2V3 region (gi3925092); Envelope glycoprotein (gi15705767)”.
In the case of `COc1ccc(C[C@H](NC(=O)c2ccc(-c3ccc(C(=O)O)cc3)o2)C(=O)O)cc1OC`, the “Identified Protein(s)” value in experiment [2] is “Carbohydrate (chondroitin synthase 2) (28466981); Glucosidase II alpha-subunit (gi5452936); Similar to chromosome 9 reading frame 24 (gi29437020) (V) Envelope glycoprotein C2V3 region (gi3925092); Envelope glycoprotein (gi15705767)”.
Same read-out and setting: with `CC(O)[C@H](NC(=O)c1cc(-c2ccco2)cs1)C(=O)O` (some centres unmarked) the entry was “Unnamed protein product (26336134); Seri- ne/threonine kinase 9/cylin dependent Serine/threonine kinase 9(23271297/4507281); Caveolin 1(gi 4972627/AAD347221) (V) Envelope glycoprotein (gi 3832399)”.
`COc1ccc(Br)c(OC)c1C(=O)N[C@@H](Cc1c[nH]c2ccccc12)C(=O)O`: in experiment [3], the “Identified Protein(s)” value is on record as “Cutochrome P450 2C31 (CYPIIC31) (CPCV_CAPAE,Q29478); Fatty acid-binding protein, (FABPI, P0293); Similar to the alpha subunit of protein kinase CK2 (gi 28527943)”.
For the compound `O=C(O)CC(NC(=O)c1ccc(-c2ccco2)o1)c1ccc(-c2ccccc2)cc1` (centres unmarked), in experiment [3], the “Identified Protein(s)” value is “Thyroid receptor interacting protein 11 (TRIP- 11,Q15643); Unnamed protein product (gi 26338976)”.
The same measure, in the same setting: with `O=C(NC1(C(=O)O)CCc2ccccc2C1)c1cccc(Br)n1` (centres unmarked) the entry was “Gap junction beta-5 protein (Connexin 31.1), (Q02739); Hypothetical protein XP1'288677 )gi 208598980)”.
As for `COc1ccc(Br)c(OC)c1C(=O)N1CCC(C(=O)O)(c2ccccc2)CC1` [drawing 202], in experiment [3], the “Identified Protein(s)” value is “Centaurin gamma (3) (Q96P47); Poly [ADP-ribose] poly- merase-1 (PARP-1) (ADPRT) (NAD(+) ADP- ribosyltransferase-1) (Poly[ADP-ribose] synthease-1) (P09874); Aortic preferentially expressed protein 1 (APEG-1) Aortic preferentially expressed protein 1 (APG1_RAT, Q63638)”.
Consider `COc1ccc(Br)c(OC)c1C(=O)N1CCC(C(=O)O)(c2ccccc2)CC1` [drawing 209], for which the “Identified Protein(s)” value in experiment [3] is given as “Cutochrome P450 2C31 (CYPIIC31) (CPCV_CAPAE,Q29478); Fatty acid-binding protein, (FABPI, P0293); Similar to the alpha subunit of protein kinase CK2 (gi 28527943)”.
For the compound T(Sa)-F-G-L-M, the “Identified Protein(s)” value in experiment [4] was “(M)”.
For the compound T(Sa)-F-V-W-H, the “Identified Protein(s)” value in experiment [4] is recorded as “(P)”.
As to T(Sa)-H-I-G-Y, in experiment [4], the “Identified Protein(s)” value is given as 16129807/15831818) (LA, M).
Regarding T(Sa)-H-W-H-L ([T(Sa)]HWHL), the “Identified Protein(s)” value in experiment [4] is “(NaDPH) (gi 2121143)”.
Consider T(Sa)-H-W-V-V, for which the “Identified Protein(s)” value in experiment [4] is listed as “(M)”.
